Experimental findings from US10550089B2, “Inhibitors of protease-activated receptor-2” (Heptares Therapeutics Limited, priority 2016, dated 2020) are described below.

Test [1] concerns the target T1, PAR2 (Homo sapiens (Human), UniProt P55085). The test is described as follows: IP-One HTRF assay for PAR2 antagonist activity (IP1 production). Format: cell-based. The method, then: Protocol for Testing Compounds for PAR2 Antagonist Activity Using an IP-One HTRF Assay
Inositol monophosphate (IP1) production were measured in 1321N1 cells stably expressing human PAR2 using an IP-One HTRF assay kit (Cisbio). […] After 60 min at 37° C. cells were lysed and IP1 concentrations were detected according to the manufacturers protocol (Cisbio). Data were normalized to IP1 concentrations using a IP1 standard curve according to the manufacturers protocol (Cisbio).
For orientation: TR-FRET usually uses a lanthanide donor and a delayed reading to cut background.

Test [2] concerns the target T1, PAR2. The test is described as follows: Trypsin activated FLPR Ca2+ mobilization assay for PAR2 antagonist activity. The class given is cell-based. The method, then: Trypin Activated FLPR Assay:
Protocol for Testing Compounds for PAR2 Antagonist Activity Using a Ca2+ Mobilization Assay
Calcium mobilization was measured using 1321N1 cells stably expressing human PAR2. Cells were seeded in 384-well plates at 4,000 cells per well in 20 μl DMEM with Glutamax supplemented with 10% FBS and incubated for 18-24 h at 37° C., 5% CO2 and 95% humidity. […] The addition was done using a FLIPR^TETRA (384-well head, Molecular Devices) and the response was read simultaneously to detect any agonist activity.
In general terms: Calcium assays in cells follow changes in intracellular calcium, usually with a dye or a luminescent sensor.

Test [3] concerns the target T1, PAR2. In words: FLPR dissociation rate assay (PAR2 mean residence time). Format: cell-based. The conditions noted are these: cells washed after compound incubation (60-240 min); peptide agonist SLIGLR-NH2; read-out: FLPR Residence time t1/2. From the text: FLPR Dissociation Rate Assay: Protocol for Testing Compounds for PAR2 Mean Residence Time
The peptide agonist SLIGLR-NH2 (ECso) was used in place of trypsin.

Another test concerns the target PAR1 (Homo sapiens (Human), UniProt P25116). In words: β-arrestin type assay by DiscoverX against PAR1.
The mark [4] stands for this setting: hPAR2 IPpone IC50 (μM), 1321N1 cells stably expressing human PAR2, agonist SLIGRL-NH2.
Where [5] appears, read: hPAR2 FLPR (Trypsin) IC50 (μM), 1321N1 cells stably expressing human PAR2, agonist Trypsin, Vorapaxar present to block PAR1.
[6] abbreviates: 1321N1 cells stably expressing human PAR2, agonist SLIGRL-NH2, read-out: hPAR2 IPpone IC50.
The mark [7] stands for this setting: 1321N1 cells stably expressing human PAR2, agonist Trypsin, Vorapaxar present to block PAR1, read-out: hPAR2 FLPR (Trypsin) IC50.

T1 sequence (P55085 26-397): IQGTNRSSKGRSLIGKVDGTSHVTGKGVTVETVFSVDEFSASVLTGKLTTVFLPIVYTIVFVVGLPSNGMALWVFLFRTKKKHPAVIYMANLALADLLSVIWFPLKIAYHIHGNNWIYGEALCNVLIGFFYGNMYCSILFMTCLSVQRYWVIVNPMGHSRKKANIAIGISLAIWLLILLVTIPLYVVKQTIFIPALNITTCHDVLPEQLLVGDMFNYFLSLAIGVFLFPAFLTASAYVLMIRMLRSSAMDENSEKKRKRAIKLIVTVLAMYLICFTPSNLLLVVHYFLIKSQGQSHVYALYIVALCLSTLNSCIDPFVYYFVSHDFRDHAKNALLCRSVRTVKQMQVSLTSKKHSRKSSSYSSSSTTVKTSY
Chain of PAR1 (P25116 22-425): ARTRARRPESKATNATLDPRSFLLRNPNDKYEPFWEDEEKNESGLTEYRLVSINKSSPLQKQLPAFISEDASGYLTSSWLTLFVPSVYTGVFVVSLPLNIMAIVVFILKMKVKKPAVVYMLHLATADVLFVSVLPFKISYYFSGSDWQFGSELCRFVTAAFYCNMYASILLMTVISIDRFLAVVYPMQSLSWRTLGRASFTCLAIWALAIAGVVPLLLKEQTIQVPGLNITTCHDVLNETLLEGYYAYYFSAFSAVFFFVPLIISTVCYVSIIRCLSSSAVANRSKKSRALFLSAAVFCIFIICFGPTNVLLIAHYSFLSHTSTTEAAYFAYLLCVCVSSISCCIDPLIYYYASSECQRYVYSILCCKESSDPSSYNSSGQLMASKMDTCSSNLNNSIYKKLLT

The term IC50 denotes the concentration that inhibits the measured activity by half. With `OC(c1ncc[nH]1)c1ccc(F)cc1N1CCCC1` (single isomer, unassigned) [Example 16, (4-Fluoro-2-(pyrrolidin-1-yl)phenyl)(1H-imidazol-2-yl)methanol], the concentration for half-maximal inhibition (IC50) at PAR2 [1] (hPAR2 IPpone IC50 (μM)) stood at 0.96 µM; against PAR2 [2] (hPAR2 FLPR (Trypsin) IC50 (μM)), 10.1 µM. In addition, the residence time at PAR2 [3] was 161 min.

On PAR1, `CCc1ccc2c(F)ccc(C(O)c3ncc[nH]3)n12` (single isomer, unassigned) [Example 35, (3-Ethyl-8-fluoroindolizin-5-yl)(1H-imidazol-2-yl)methanol] came in with a 50% inhibitory concentration (IC50) of over 50 µM.

`CCc1coc2c(F)ccc([C@H](O)c3ncc[nH]3)c12` (single isomer, unassigned) [Example 42]: the values for the IC50 at PAR2 [1] (setting [4]) and at PAR2 [2] (setting [5]) were 0.33 µM and 3.09 µM, respectively. Besides, on PAR2 [3], the residence time is 119 min.

As to `CCCc1cc(F)ccc1[C@H](O)c1ncc[nH]1` [Example 3, (S)-(4-Fluoro-2-propylphenyl)(1H-imidazol-2-yl)methanol], the half-maximal inhibitory concentration (IC50) on PAR2 [1] (setting [6]) was 1.29 µM; at PAR2 [2] (setting [7]), 3.92 µM; against PAR1 it was over 50 µM. At PAR2 [3], the residence time is 62 min.

As for `OC(c1ncc[nH]1)c1ccc(F)cc1C12CCCC1C2` (stereo not shown) [Example 31, (2-(Bicyclo[3.1.0]hexan-1-yl)-4-fluorophenyl)(1H-imidazol-2-yl)methanol], the half-inhibitory concentration (IC50) on PAR2 [1] (setting [6]) was 4.32 µM; on PAR2 [2] (setting [7]), over 41 µM.

Regarding `OC(c1ncc[nH]1)c1ccc(F)cc1-c1cocn1` (stereo not shown) [Example 32, (4-Fluoro-2-(oxazol-4-yl)phenyl)(1H-imidazol-2-yl)methanol], the half-inhibitory concentration (IC50) was determined as 14.3 µM at PAR2 [1] (setting [6]) and 30.6 µM at PAR2 [2] (setting [7]).

Consider `OC(c1ncc[nH]1)c1ccc(F)cc1-c1cscn1` (stereo not shown) [Example 33, (4-Fluoro-2-(thiazol-4-yl)phenyl)(1H-imidazol-2-yl)methanol], for which the IC50 against PAR2 [1] (hPAR2 IPpone IC50 (μM)) is 3.6 µM; on PAR2 [2] (hPAR2 FLPR (Trypsin) IC50 (μM)) it was 16.8 µM.

For the molecule `Cc1ccc2c(F)ccc(C(O)c3ncc[nH]3)n12` (stereo not shown) [Example 37, (8-Fluoro-3-methylindolizin-5-yl)(1H-imidazol-2-yl)methanol], the half-inhibitory concentration (IC50) at PAR2 [1] (setting [6]) was determined as 0.97 µM; on PAR2 [2] (setting [7]), 3.27 µM.

For the molecule `CC(C)c1ccc2c(F)ccc(C(O)c3ncc[nH]3)n12` (stereo not shown) [Example 38, (8-Fluoro-3-isopropylindolizin-5-yl)(1H-imidazol-2-yl)methanol], the figures for the IC50 at PAR2 [1] (setting [4]) and on PAR2 [2] (setting [5]) were 1.91 µM and 13.9 µM, respectively.

For `CCc1coc2c(F)ccc(C(O)c3ncc[nH]3)c12` (stereo not shown) [Example 40, (3-Ethyl-7-fluorobenzofuran-4-yl)(1H-imidazol-2-yl)methanol], the IC50 at PAR2 [1] (setting [4]) amounted to 0.75 µM; at PAR2 [2] (setting [5]), 4.9 µM.

With `OC(c1ncc[nH]1)c1ccc(F)c2occ(C3CC3)c12` (stereo not shown) [Example 43, (3-Cyclopropyl-7-fluorobenzofuran-4-yl)(1H-imidazol-2-yl)methanol], the results for the half-maximal inhibitory concentration (IC50) at PAR2 [1] (setting [6]) and at PAR2 [2] (setting [7]) were 0.86 µM and 4.58 µM, respectively.

As for `Cc1coc2c(F)ccc(C(O)c3ncc[nH]3)c12` (stereo not shown) [Example 52, (7-Fluoro-3-methylbenzofuran-4-yl)(1H-imidazol-2-yl)methanol], the results for the IC50 on PAR2 [1] (setting [6]) and on PAR2 [2] (setting [7]) were 0.97 µM and 3.27 µM, respectively.

Turning to `CCn1ccc2c(F)ccc(C(O)c3ncc[nH]3)c21` (stereo not shown) [Example 57, (1-Ethyl-4-fluoro-1H-indol-7-yl)(1H-imidazol-2-yl)methanol], the IC50 at PAR2 [1] (setting [6]) worked out at 1.65 µM; at PAR2 [2] (setting [7]), 9.03 µM.

Turning to `OC(c1ncc[nH]1)c1ccc(F)c2ccc(Cl)n12` (stereo not shown) [Example 61, (3-Chloro-8-fluoro-indolizin-5-yl)-(1H-imidazol-2-yl)methanol], the IC50 at PAR2 [1] (setting [6]) came out at 1.9 µM; on PAR2 [2] (setting [7]), 3.1 µM.
